One experiment deals with NMDAR2A (Homo sapiens, UniProt Q12879). The experiment in a line: Potentiation of [3H]MK-801 binding, NMDAR2A. Set-up: species or system rat. Conditions: NMDAR2A binding profile; for % 1 mM Glycine: relative to 1 mM glycine. Here is the method:
(§1) Assays were conducted as described by Moskal et al., “GLYX-13: a monoclonal antibody-derived peptide that acts as an N-rnethyl-D-aspartate receptor modulator,” Neuropharmacology, 49, 1077-87, 2005. The potentiation of [^3H]MK-801 binding (5 nrM; 22.5 Ci/mmol) to well washed rat cortical membranes (200 μg) was measured under non-equilibrium conditions (15 min @ 25° C.) in the presence of increasing concentrations of Compound A.
(§2) Assays were conducted as described above in Example 5, by Moskal et al. (2005).

For the next experiment, the target named is NMDAR2B (Homo sapiens, UniProt Q13224). The experiment in a line: Potentiation of [3H]MK-801 binding, NMDAR2B. On the set-up: species or system rat. The conditions noted are these: NMDAR2B binding profile; for % 1 mM Glycine: relative to 1 mM glycine.
The next experiment deals with NMDAR2C (Homo sapiens, UniProt Q14957). The experiment in a line: Potentiation of [3H]MK-801 binding, NMDAR2C. Set-up: species or system rat. Conditions: NMDAR2C binding profile; for % 1 mM Glycine: relative to 1 mM glycine.
A further experiment concerns the target NMDAR2D (Homo sapiens, UniProt O15399). The experiment can be described thus: Potentiation of [3H]MK-801 binding, NMDAR2D. Conditions: NMDAR2D binding profile; for % 1 mM Glycine: relative to 1 mM glycine. Set-up: species or system rat. Here is the method: as §1, §2
Another experiment has as its system Sprague Dawley rats. The experiment in a line: Bennett model of mechanical analgesia (paw withdrawal threshold). The class given is in vivo, rat. Conditions: 150 mg/kg PO; tested 1 h, 24 hrs and 1 week post-dosing. Here is the method:
Bennett G J, Xie Y K, “A peripheral mononeuropathy in rat that produces disorders of pain sensation like those seen in man,” Pain 33:87-107, 1988. […] Vehicle animals receive the surgery and then receive vehicle rather than test compound. Animals were tested 1 hr, 24 h and 1 wk post-test compound or vehicle administration.
Male 2-3 month old Sprague Dawley rats were used. Harlan was the supplier for all studies. Rats were housed in Lucite cages with aspen wood chip bedding, maintained on a 12:12 light:dark cycle (lights on at 5 AM), and given ad libitum access to Purina lab chow (USA) and tap water throughout the study.
Rats were anesthetized using inhaled isoflurane (2.5%). Spared nerve injury surgery was performed as previously described (Bennett and Xie, 1988). An incision (˜1.5 cm in length) was made with a scalpel blade dorsally through skin on the right hindlimb, parallel and posterior to femur. Using a small pointed hemostat, the biceps femoris and gluteus superficialis muscles were separated. Using curved blunt forceps, the common sciatic nerve was isolated and exposed. For the mechanical analgesia studies, the whole sciatic nerve was ligated. Using hemostats/forceps and chromic gut (5-0), the nerve was loosely ligated with a square knot; 3 ligatures, 1 mm apart were placed on the nerve. […] For the thermal analgesia studies, the common peroneal and tibial branches of the sciatic nerve were ligated and cut, and the sural branch was spared. See Decosterd I, Woolf C J, “Spared nerve injury: an animal model of persistent peripheral neuropathic pain,” Pain 87:149-158, 2000. Testing occurred 1-2 weeks post-surgery.
During testing, rats were acclimated to the surface of a suspended wire mesh grid (1 cm×1 cm, with the wire being 0.3 cm in diameter) for 15-20 min. Starting from the smallest, each Von Frey filament was pressed perpendicularly to the plantar surface of the affected (ipsilateral) hindpaw until slightly bent and then held for 6 second. […]

The structures appear in SMILES notation.

NMDAR2B, sequence (Q13224 27-1484, species assumed, other chains not shown): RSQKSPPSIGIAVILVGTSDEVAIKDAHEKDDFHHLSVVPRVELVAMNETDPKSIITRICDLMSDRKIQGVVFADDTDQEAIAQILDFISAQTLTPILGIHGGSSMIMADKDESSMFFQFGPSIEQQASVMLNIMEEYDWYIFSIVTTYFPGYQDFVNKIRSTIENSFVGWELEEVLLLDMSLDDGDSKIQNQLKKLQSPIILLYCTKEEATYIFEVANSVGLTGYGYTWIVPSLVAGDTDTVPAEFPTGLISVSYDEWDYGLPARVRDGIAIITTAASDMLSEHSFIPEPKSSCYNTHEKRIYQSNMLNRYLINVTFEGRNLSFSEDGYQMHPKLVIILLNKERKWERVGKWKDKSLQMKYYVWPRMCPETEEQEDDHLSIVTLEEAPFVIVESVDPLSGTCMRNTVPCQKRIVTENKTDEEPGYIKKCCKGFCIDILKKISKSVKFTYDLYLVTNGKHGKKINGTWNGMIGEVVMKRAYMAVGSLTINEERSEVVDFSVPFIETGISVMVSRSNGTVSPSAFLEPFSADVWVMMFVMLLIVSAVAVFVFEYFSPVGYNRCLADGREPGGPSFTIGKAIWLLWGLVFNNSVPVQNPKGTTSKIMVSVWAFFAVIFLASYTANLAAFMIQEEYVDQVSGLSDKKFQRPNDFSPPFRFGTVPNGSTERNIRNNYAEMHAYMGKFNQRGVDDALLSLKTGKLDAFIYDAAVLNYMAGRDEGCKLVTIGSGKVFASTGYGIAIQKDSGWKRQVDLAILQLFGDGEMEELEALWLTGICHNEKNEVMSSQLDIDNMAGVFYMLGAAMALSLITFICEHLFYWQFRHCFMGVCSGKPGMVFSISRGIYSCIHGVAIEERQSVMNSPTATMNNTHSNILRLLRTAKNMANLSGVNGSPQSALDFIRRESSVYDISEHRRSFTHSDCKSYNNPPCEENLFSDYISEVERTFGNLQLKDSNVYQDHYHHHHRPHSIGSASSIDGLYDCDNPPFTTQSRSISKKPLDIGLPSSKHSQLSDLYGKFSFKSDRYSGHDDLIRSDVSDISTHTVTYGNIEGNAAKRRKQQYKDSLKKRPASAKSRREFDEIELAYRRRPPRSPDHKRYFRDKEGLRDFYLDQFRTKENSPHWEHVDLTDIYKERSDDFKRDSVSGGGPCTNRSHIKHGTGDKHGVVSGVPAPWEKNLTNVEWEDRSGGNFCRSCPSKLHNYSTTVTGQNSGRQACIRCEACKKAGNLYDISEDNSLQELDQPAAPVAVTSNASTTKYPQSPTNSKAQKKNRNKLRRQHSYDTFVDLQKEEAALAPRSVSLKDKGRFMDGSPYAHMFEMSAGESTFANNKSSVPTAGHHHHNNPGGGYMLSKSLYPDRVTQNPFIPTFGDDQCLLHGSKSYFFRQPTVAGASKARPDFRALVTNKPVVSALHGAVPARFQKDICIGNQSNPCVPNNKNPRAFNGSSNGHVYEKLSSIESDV
NMDAR2A, sequence (Q12879 23-1464, species assumed, other chains not shown): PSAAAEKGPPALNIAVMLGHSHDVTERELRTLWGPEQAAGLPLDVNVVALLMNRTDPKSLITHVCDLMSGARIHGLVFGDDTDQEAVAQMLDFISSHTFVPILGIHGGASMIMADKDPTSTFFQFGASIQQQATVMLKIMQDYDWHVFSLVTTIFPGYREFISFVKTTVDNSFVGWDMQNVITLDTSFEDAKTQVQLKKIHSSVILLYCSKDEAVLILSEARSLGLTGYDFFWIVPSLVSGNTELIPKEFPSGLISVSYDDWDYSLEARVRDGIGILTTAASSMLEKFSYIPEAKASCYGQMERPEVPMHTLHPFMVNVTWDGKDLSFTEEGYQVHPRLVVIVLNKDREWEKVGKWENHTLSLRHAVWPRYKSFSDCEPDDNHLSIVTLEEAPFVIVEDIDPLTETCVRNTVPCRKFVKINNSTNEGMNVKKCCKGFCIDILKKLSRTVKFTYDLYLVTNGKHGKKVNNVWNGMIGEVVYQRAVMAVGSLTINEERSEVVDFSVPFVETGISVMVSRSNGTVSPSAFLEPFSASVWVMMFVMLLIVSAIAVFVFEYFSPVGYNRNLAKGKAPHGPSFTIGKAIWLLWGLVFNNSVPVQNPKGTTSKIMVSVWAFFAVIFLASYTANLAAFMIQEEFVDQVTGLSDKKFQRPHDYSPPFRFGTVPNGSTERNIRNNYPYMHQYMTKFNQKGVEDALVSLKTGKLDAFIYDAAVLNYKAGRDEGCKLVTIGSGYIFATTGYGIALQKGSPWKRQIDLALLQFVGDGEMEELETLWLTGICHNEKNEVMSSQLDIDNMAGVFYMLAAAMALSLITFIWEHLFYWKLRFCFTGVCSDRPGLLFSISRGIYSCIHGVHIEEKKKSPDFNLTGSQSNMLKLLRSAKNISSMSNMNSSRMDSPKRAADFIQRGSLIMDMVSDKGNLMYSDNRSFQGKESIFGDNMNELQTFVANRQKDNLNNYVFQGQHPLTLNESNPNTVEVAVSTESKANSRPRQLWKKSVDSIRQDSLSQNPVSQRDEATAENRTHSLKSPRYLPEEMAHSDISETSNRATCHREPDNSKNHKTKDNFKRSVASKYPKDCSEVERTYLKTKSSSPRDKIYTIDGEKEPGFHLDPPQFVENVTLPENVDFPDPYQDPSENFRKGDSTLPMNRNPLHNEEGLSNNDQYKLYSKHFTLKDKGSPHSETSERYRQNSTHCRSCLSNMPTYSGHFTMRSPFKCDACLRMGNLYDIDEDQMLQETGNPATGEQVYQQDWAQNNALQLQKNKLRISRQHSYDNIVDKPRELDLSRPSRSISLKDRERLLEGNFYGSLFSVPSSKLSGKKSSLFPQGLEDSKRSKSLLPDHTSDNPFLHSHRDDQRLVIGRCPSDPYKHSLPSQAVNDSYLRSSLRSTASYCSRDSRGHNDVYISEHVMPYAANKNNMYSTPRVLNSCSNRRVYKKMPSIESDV
NMDAR2D, sequence (O15399 28-1336, species assumed, other chains not shown): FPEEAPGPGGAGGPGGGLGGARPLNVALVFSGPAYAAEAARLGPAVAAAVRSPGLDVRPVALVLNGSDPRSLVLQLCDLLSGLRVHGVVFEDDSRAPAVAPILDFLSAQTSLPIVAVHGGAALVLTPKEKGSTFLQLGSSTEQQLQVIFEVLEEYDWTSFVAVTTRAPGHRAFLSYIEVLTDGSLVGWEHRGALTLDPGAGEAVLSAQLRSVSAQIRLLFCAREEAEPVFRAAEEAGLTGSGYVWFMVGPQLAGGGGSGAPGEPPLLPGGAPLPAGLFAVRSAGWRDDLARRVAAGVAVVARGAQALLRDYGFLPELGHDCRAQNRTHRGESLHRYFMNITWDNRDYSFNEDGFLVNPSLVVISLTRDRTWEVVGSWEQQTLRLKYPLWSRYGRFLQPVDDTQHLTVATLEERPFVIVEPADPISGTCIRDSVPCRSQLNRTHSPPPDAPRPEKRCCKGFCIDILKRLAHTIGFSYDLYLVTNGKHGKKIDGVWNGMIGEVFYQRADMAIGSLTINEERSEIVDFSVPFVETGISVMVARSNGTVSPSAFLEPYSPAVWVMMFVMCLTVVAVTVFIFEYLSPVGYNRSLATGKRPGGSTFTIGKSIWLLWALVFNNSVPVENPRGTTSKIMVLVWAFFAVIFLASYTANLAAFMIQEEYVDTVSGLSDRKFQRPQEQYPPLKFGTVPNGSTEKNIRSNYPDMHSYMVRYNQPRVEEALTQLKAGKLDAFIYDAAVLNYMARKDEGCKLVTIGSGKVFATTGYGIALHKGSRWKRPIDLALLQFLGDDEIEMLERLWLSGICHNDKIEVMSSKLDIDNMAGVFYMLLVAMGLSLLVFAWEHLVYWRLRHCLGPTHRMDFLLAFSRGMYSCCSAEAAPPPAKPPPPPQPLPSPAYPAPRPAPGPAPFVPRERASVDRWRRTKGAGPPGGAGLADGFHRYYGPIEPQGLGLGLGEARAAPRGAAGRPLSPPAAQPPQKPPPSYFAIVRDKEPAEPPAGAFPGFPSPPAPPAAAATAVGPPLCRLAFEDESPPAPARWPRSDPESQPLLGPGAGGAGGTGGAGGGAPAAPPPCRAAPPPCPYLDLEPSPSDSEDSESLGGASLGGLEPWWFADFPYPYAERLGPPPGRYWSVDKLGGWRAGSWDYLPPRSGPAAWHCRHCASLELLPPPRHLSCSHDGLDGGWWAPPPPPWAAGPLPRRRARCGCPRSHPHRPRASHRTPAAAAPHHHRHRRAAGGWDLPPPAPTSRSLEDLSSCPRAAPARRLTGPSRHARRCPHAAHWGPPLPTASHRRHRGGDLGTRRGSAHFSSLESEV

On to `C[C@@H](O)[C@@H](C(N)=O)N1C[C@]2(CCCN2C(=O)OC(C)(C)C)C1=O` [Compound W, tert-butyl (R)-2-((2S,3R)-1-amino-3-hydroxy-1-oxobutan-2-yl)-1-oxo-2,5-diazaspiro[3.4]octane-5-carboxylate], for which the Conclusion entry is “WT2A agonist” at NMDAR2A, “WT2B agonist” at NMDAR2B, “WT2C agonist” on NMDAR2C and “agonist” on NMDAR2D. Besides, the “% 1 mM Glycine” value at NMDAR2A is recorded as 18.33%; on NMDAR2B, 53.09%; at NMDAR2C it was 67.5%; on NMDAR2D it was 66.72%.

On to `C[C@@H](O)[C@@H](C(N)=O)N1C[C@@]2(CCCN2C(=O)OC(C)(C)C)C1=O` [Compound X, tert-butyl (S)-2-((2S,3R)-1-amino-3-hydroxy-1-oxobutan-2-yl)-1-oxo-2,5-diazaspiro[3.4]octane-5-carboxylate], for which the Conclusion entry at NMDAR2A is on record as “WT2A agonist”; at NMDAR2B it was “WT2B agonist”; on NMDAR2C, “WT2C agonist”; on NMDAR2D, “agonist”. Besides, the “% 1 mM Glycine” value was 41.04% on NMDAR2A, 59.55% at NMDAR2B, 59.73% at NMDAR2C and 93.58% at NMDAR2D.

Take `CC(C)C(=O)N1CCC[C@]12CN([C@H](C(N)=O)[C@@H](C)O)C2=O` [Compound Y, (2S,3R)-3-hydroxy-2-((R)-5-isobutyryl-1-oxo-2,5-diazaspiro[3.4]octan-2-yl)butanamide]: the Conclusion entry on NMDAR2A is “WT2A agonist”; at NMDAR2B, “WT2B agonist”; at NMDAR2C, “WT2C agonist”; at NMDAR2D, “agonist”. Also, the “% 1 mM Glycine” value on NMDAR2A is listed as 61.76%; on NMDAR2B, 70.74%; at NMDAR2C, 64.24%; on NMDAR2D it was 54.85%.

With `CC(C)C(=O)N1CCC[C@@]12CN([C@H](C(N)=O)[C@@H](C)O)C2=O` [Compound Z, (2S,3R)-3-hydroxy-2-((S)-5-isobutyryl-1-oxo-2,5-diazaspiro[3.4]octan-2-yl)butanamide], the Conclusion result was “WT2A agonist” at NMDAR2A, “WT2B agonist” on NMDAR2B, “WT2C agonist” on NMDAR2C and “agonist” on NMDAR2D. In addition, the “% 1 mM Glycine” value at NMDAR2A turned out to be 42.5%; at NMDAR2B, 70.49%; at NMDAR2C it was 47.76%; on NMDAR2D, 65.32%.

On to `NCC1(CC(=O)O)CCCCC1` [gabapentin, reference compound], for which the “analgesic effect in the Bennett model” value in the experiment with Sprague Dawley rats is “only produced an analgesic effect 1 h post-dosing”.

The values above are taken from patent US10196401B2, “Spiro-lactam NMDA receptor modulators and uses thereof” (Aptinyx Inc., priority 2016, dated 2019).
